Experiment: Compound was tested for calcium mobilization using rat basophilic leukemia cells at concentration of 5 mM
Assay type: functional, cell-based
Settings: RBL-1

EC50: 70 µM
SMILES: O=P(O)(O)C[C@@H]1[C@@H](O)[C@H](O)[C@H](O)[C@H](O)[C@H]1CP(=O)(O)O
